Experiments:
Type in all cases: functional
[1] = tested on: Mycobacterium tuberculosis; assay: Antimycobacterial activity against Mycobacterium tuberculosis H37Rv harboring D251N mutant by microplate alamar blue assay
[2] = tested on: Mycobacterium tuberculosis; assay: Antimycobacterial activity against Mycobacterium tuberculosis H37Rv harboring G262S mutant by microplate alamar blue assay
[3] = tested on: Mycobacterium tuberculosis; assay: Antimycobacterial activity against Mycobacterium tuberculosis H37Rv harboring Q172P mutant by microplate alamar blue assay

Measured: MIC

Nc1ncnc2c1c(I)cn2[C@@H]1O[C@H](CO)[C@@H](O)[C@H]1O [IODOTUBERCIDIN]
>100 µM: all assays above

— ChEMBL document CHEMBL4393679, “Structure-Guided Drug Design of 6-Substituted Adenosine Analogues as Potent Inhibitors of Mycobacterium tuberculosis Adenosine Kinase” (J Med Chem, 2019)
